Data published in US10988477B2 (Merck Patent GmbH, priority 2018, dated 2021).

Target: GCN2 kinase (Homo sapiens, UniProt Q9P2K8)
Test: GCN2 enzyme inhibition assay (Transcreener ADP2 fluorescence polarization)
Assay type: biochemical
Conditions: compounds of Formula II; 280 μM ATP, 4 nM GCN2 kinase
Outline: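 Kinase activity is followed as ADP formation, measured by fluorescence polarization, using 4 nM enzyme with 280 μM ATP and 200 μM (RS)7 peptide at pH 7.5 and 25 °C for 1 h. Values come from a non-linear tight-binding fit.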

Sequence of GCN2 kinase (Q9P2K8 whole entry): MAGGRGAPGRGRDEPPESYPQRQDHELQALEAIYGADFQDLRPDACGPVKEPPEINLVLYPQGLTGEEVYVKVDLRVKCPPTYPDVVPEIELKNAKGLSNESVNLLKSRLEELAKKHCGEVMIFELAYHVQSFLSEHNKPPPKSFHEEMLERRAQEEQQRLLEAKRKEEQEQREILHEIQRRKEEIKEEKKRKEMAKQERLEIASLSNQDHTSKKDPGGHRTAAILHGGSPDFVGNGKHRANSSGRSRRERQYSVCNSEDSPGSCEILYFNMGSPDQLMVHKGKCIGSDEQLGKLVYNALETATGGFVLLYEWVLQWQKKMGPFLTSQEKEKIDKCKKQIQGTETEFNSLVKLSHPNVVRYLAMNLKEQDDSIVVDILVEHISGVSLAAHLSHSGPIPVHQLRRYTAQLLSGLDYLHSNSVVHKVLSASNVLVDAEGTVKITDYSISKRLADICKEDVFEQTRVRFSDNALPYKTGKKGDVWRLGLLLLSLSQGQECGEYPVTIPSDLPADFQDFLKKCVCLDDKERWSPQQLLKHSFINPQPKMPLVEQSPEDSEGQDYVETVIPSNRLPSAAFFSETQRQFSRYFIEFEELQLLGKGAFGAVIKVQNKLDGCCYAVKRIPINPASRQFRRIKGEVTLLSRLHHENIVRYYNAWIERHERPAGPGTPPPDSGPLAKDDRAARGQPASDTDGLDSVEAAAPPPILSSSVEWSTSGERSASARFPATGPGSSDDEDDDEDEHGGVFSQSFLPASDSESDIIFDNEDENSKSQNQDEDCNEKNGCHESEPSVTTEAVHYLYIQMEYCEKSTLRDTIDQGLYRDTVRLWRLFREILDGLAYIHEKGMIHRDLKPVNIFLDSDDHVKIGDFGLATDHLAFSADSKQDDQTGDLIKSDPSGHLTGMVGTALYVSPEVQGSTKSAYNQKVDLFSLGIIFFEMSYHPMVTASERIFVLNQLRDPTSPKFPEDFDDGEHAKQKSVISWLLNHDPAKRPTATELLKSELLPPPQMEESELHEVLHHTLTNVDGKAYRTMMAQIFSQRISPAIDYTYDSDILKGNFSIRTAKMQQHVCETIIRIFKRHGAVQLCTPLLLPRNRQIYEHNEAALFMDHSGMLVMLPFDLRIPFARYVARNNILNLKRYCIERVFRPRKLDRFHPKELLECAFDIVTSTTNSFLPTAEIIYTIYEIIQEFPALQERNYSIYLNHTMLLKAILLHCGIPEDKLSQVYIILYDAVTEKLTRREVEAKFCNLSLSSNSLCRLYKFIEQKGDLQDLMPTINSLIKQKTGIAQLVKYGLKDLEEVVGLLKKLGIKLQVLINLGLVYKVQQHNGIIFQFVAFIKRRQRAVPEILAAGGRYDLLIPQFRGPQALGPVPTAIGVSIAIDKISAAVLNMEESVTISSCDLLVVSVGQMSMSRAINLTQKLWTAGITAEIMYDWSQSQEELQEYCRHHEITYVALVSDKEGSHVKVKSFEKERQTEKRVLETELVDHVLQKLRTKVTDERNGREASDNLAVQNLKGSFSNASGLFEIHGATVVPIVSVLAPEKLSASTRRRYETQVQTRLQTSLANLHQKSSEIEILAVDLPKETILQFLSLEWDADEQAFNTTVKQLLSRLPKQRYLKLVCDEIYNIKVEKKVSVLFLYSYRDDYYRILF

CCC(NS(C)(=O)=O)C1CN(c2cc(-c3cnc4ccc(C(F)F)nn34)ncn2)CCO1 (stereo not shown) [II-571, N-(1-(4-(6-(6-(Difluoromethyl)imidazo[1,2-b]pyridazin-3-yl)pyrimidin-4-yl)morpholin-2-yl)propyl)methanesulfonamide]
Ki: 10 to 1000 nM

CCC(NS(C)(=O)=O)C1CN(c2cc(-c3cnc4ccc(C(F)F)nn34)ncn2)CCO1 (stereo not shown) [II-572, N-(1-(4-(6-(6-(Difluoromethyl)imidazo[1,2-b]pyridazin-3-yl)pyrimidin-4-yl)morpholin-2-yl)propyl)methanesulfonamide]
Ki: 10 to 1000 nM

CS(C)(=O)=NCC1CCCN(c2cc(-c3cnc4ccc(C(F)F)nn34)ncn2)C1 (stereo not shown) [II-573, (((1-(6-(6-(Difluoromethyl)imidazo[1,2-b]pyridazin-3-yl)pyrimidin-4-yl)piperidin-3-yl)methyl)imino)dimethyl-λ^6-sulfanone]
Ki: 10 to 1000 nM

CS(C)(=O)=NCC1CCCN(c2cc(-c3cnc4ccc(C(F)F)nn34)ncn2)C1 (stereo not shown) [II-574, (((1-(6-(6-(Difluoromethyl)imidazo[1,2-b]pyridazin-3-yl)pyrimidin-4-yl)piperidin-3-yl)methyl)imino)dimethyl-λ^6-sulfanone]
Ki: 10 to 1000 nM

Cc1c(CNS(C)(=O)=O)cccc1-c1cc(-c2cnc3ccc(C(F)F)nn23)ncn1 [II-575, N-[[3-[6-[6-(Difluoromethyl)imidazo[1,2-b]pyridazin-3-yl]pyrimidin-4-yl]-2-methyl-phenyl]methyl]methanesulfonamide]
Ki: 10 to 1000 nM

CS(=O)(=O)NCc1cccc(-c2cc(-c3cnc4ccc(C(F)F)nn34)ncn2)c1 [II-576, N-[[3-[6-[6-(Difluoromethyl)imidazo[1,2-b]pyridazin-3-yl]pyrimidin-4-yl]phenyl]methyl]methanesulfonamide]
Ki: < 10 nM

CC1CC(CO)C(C)N(c2cc(-c3cnc4ccc(C(F)F)nn34)ncn2)C1 (stereo not shown) [II-577, (1-(6-(6-(Difluoromethyl)imidazo[1,2-b]pyridazin-3-yl)pyrimidin-4-yl)-2,5-dimethylpiperidin-3-yl)methanol]
Ki: < 10 nM

CC1C(N=S(C)(C)=O)CCCN1c1cc(-c2cnc3ccc(C(F)F)nn23)ncn1 (stereo not shown) [II-578, ((1-(6-(6-(Difluoromethyl)imidazo[1,2-b]pyridazin-3-yl)pyrimidin-4-yl)-2-methylpiperidin-3-yl)imino)dimethyl-λ^6-sulfanone]
Ki: < 10 nM

CC1C(N=S(C)(C)=O)CCCN1c1cc(-c2cnc3ccc(C(F)F)nn23)ncn1 (stereo not shown) [II-579, ((1-(6-(6-(Difluoromethyl)imidazo[1,2-b]pyridazin-3-yl)pyrimidin-4-yl)-2-methylpiperidin-3-yl)imino)dimethyl-λ^6-sulfanone]
Ki: 10 to 1000 nM

CS(=N)(=O)c1cccc(-c2cc(-c3cnc4ccc(C(F)F)nn34)ncn2)c1 (stereo not shown) [II-580, (3-(6-(6-(Difluoromethyl)imidazo[1,2-b]pyridazin-3-yl)pyrimidin-4-yl)phenyl)(imino)(methyl)-λ^6-sulfanone]
Ki: 10 to 1000 nM

CC1C(CN=S(C)(C)=O)CCCN1c1cc(-c2cnc3ccc(C(F)F)nn23)ncn1 (stereo not shown) [II-583, (((1-(6-(6-(Difluoromethyl)imidazo[1,2-b]pyridazin-3-yl)pyrimidin-4-yl)-2-methylpiperidin-3-yl)methyl)imino)dimethyl-λ^6-sulfanone]
Ki: > 1000 nM

CC1C(CN=S(C)(C)=O)CCCN1c1cc(-c2cnc3ccc(C(F)F)nn23)ncn1 (stereo not shown) [II-584, (((1-(6-(6-(Difluoromethyl)imidazo[1,2-b]pyridazin-3-yl)pyrimidin-4-yl)-2-methylpiperidin-3-yl)methyl)imino)dimethyl-λ^6-sulfanone]
Ki: 10 to 1000 nM

CC1CC(CS(C)(=O)=O)C(C)N(c2cc(-c3cnc4ccc(C(F)F)nn34)ncn2)C1 (stereo not shown) [II-587, 6-(Difluoromethyl)-3-[6-[2,5-dimethyl-3-(methylsulfonylmethyl)-1-piperidyl]pyrimidin-4-yl]imidazo[1,2-b]pyridazine]
Ki: < 10 nM
